Source: patent publication US10238656B2, “Combination therapy for cancer” (Eli Lilly and Company, priority 2014, dated 2019)
Several values for one entry are separate records, joined by “and”; a condition that tells them apart may be missing. Equal entries are not always repeated.

Columns and labels:
Stage IV NSCLC = experiment: Phase 1b study of abemaciclib in combination with ramucirumab, tumor response; assay type: in vivo, human; design: key: PR is partial response;; SD is stable disease;; PD is progressive disease;; NDR is no data reported; settings: preliminary
Method: This study is a multicenter, nonrandomized, open-label, dose-escalation Phase 1b study of oral dosing of [5-(4-ethyl-piperazin-1-ylmethyl)-pyridin-2-yl]-[5-fluoro-4-(7-fluoro-3-isopropyl-2-methyl-3H-benzoimidazol-5-yl)-pyrimidin-2-yl]-amine at 100 mg, 150 mg, or 200 mg every 12 (±3) hours on Days 1 through 21 of a 21-day cycle. in combination with ramucirumab administered at 10 mg/kg over a 60-minute IV infusion followed by a 1-hour observation period on Day 1 of a 21-day cycle for patients with Stage IV NSCLC.
The primary objective of this study is to evaluate the safety and tolerability of [5-(4-ethyl-piperazin-1-ylmethyl)-pyridin-2-yl]-[5-fluoro-4-(7-fluoro-3-isopropyl-2-methyl-3H-benzoimidazol-5-yl)-pyrimidin-2-yl]-amine when administered orally in combination with ramucirumab to patients with Stage IV NSCLC using Common Terminology Criteria for Adverse Events (CTCAE version 4.0, NCI 2009).
The secondary objectives of the study are to document the antitumor activity of [5-(4-ethyl-piperazin-1-ylmethyl)-pyridin-2-yl]-[5-fluoro-4-(7-fluoro-3-isopropyl-2-methyl-3H-benzoimidazol-5-yl)-pyrimidin-2-yl]-amine when given in combination with ramucirumab; to determine the pharmacokinetics (PK) of [5-(4-ethyl-piperazin-1-ylmethyl)-pyridin-2-yl]-[5-fluoro-4-(7-fluoro-3-isopropyl-2-methyl-3H-benzoimidazol-5-yl)-pyrimidin-2-yl]-amine when given in combination with ramucirumab; and to characterize changes in patient-reported pain and disease-related symptoms collected via the MD Anderson Symptom Inventory-Lung Cancer (MDASI-LC).
[5-(4-Ethyl-piperazin-1-ylmethyl)-pyridin-2-yl]-[5-fluoro-4-(7-fluoro-3-isopropyl-2-methyl-3H-benzoimidazol-5-yl)-pyrimidin-2-yl]-amine is supplied as capsules at 100 mg, 150 mg, or 200 mg for oral administration.
Ramucirumab is supplied in a sterile, preservative-free solution for infusion of ramucirumab formulated in an aqueous solution at a concentration of […] (500 mg/50-mL vial). The buffer contains 10 mM histidine, 75 mM sodium chloride, 133 mM glycine, and 0.01% polysorbate 80, pH 6.0. Ramucirumab is supplied in single-use 50-mL nominal volume glass vials.
The first dose of ramucirumab is dependent upon the patient's baseline body weight in kilograms. Subsequent doses of ramucirumab must be recalculated if there is a ≥10% change (increase or decrease) in body weight from last dose calculation; subsequent doses may be recalculated if there is a <10% change (increase or decrease) in body weight from last dose calculation.

[1] = test system: NCI-H441 xenograft tumors; experiment: Antitumor efficacy in NCI-H441 xenograft model, Study 1; assay type: in vivo, female Hsd athymic nude mice
Excerpt: (§1) Grow the human NSCLC line NCI-H441 or NCI-H2122 in RPMI 1640 medium+10% fetal bovine serum. Harvest sub-confluent cells with trypsin and rinse twice with growth medium without serum. For subcutaneous tumors, initiate growth by subcutaneous injection of 5×10^6 cells in a 1:1 mixture of Hank's balanced salt solution (HBSS) and Matrigel (BD Bioscience, Franklin Lakes, N.J.) in the rear flank of each subject animal. When mean tumors volumes reach approximately 150-200 mm^3 in size, randomize the animals by tumor size and body weight by randomization techniques well known in the art and place into their respective treatment groups using the number of animals per group as indicated.
Capture tumor size and body weight using Web Director. Estimate tumor volume (V) by using the formula: V=0.536L×W^2 where L=larger of measured diameter and W=smaller of perpendicular diameter. Transform the tumor volume data to a log scale to equalize variance across time and treatment groups. Analyze the log volume data with a two-way repeated measures analysis of variance by time and treatment using the MIXED procedures in SAS software (Version 9.3). The correlation model for the repeated measures is Spatial Power. Compare treated groups compared to the control group at each time point. Use the MIXED procedure also separately for each treatment group to calculate adjusted means and standard errors at each time point. Both analyses account for the autocorrelation within each animal and the loss of data that occurred when animals with large tumors were removed from the study early. Plot the adjusted means and standard errors for each treatment group versus time. Calculate relative changes in tumor volume (% T/C) using the tumor volume measurements taken nearest to the last day of dosing with Compound A, whereas the baseline tumor volume is the volume recorded on or just prior to first day of dosing. Calculate % T/C values using the formula % T/C=100×ΔT/ΔC, whereby T=mean tumor volume of the compound treated group, ΔT=mean tumor volume of the compound treated group minus the mean tumor volume on the baseline day, C=mean tumor volume of the control (vehicle) group, and ΔC=mean tumor volume of the control group minus the mean tumor volume on the baseline day. Tumor growth inhibition is observed in those instances where the calculated values for % T/C are less than 100% whereby greater inhibition results in smaller % T/C values. If ΔT was <0, then a tumor regression value was calculated instead of % T/C whereby % Regression=100×ΔT/Tinitial such that Tinitial=the grand mean of the tumor volume for all the treatment groups. Any negative values for % T/C listed are values for % Regression. […]

[2] = Body weight (tolerability), NCI-H441 xenograft Study 1; assay type: in vivo, female Hsd athymic nude mice; settings: baseline (day 14) versus day 42
Method: (§2) Assess antitumor efficacy of the combination of DC101 and Compound A by measuring tumor volume by three dimensional caliper measurements twice a week during the course of the study. Measure body weight twice weekly during the course of the study, as a general indicator of tolerability.
(§3) Treat female Hsd athymic nude mice (n=8) bearing NCI-H441 xenograft tumors with Compound A by oral gavage once daily for 28 days at a dose of 50 or 100 mg/kg using 0.2 mL/dose. Administer Compound A starting after the mean tumor volumes reach approximately 150-200 mm^3 in size (day 15 after tumor implantation) and end treatment 28 days later (on day 42). Measure tumor volume and body weight twice a week for the duration of the treatment period.
(§4) Treat female Hsd athymic nude mice (n=8) bearing NCI-H441 xenograft tumors with DC101 twice weekly for four weeks by intraperitoneal injection at doses of 10, 20 or 40 mg/kg. Administer DC101 starting after the mean tumor volumes reach approximately 150-200 mm^3 in size (day 15 after tumor implantation) and end on day 39. Measure tumor volume and body weight twice a week for the duration of the treatment period.
Treat female Hsd athymic nude mice (n=8) bearing NCI-H441 xenograft tumors with Compound A by oral gavage once daily for 28 days at a dose of 50 mg/kg using 0.2 mL/dose and intraperitoneal inject DC101 twice weekly at a dose of 20 mg/kg. […]

[3] = test system: NCI-H441 xenograft tumors; experiment: Antitumor efficacy in NCI-H441 xenograft model, Study 2; assay type: in vivo, female Hsd athymic nude mice
Excerpt: as §1
Capture tumor size and body weight using Web Director. Estimate tumor volume (V) by using the formula: V=0.536L×W^2 where L=larger of measured diameter and W=smaller of perpendicular diameter. Transform the tumor volume data to a log scale to equalize variance across time and treatment groups. Analyze the log volume data with a two-way repeated measures analysis of variance by time and treatment using the MIXED procedures in SAS software (Version 9.3). The correlation model for the repeated measures is Spatial Power. Compare treated groups compared to the control group at each time point. Use the MIXED procedure also separately for each treatment group to calculate adjusted means and standard errors at each time point. Both analyses account for the autocorrelation within each animal and the loss of data that occurred when animals with large tumors were removed from the study early. Plot the adjusted means and standard errors for each treatment group versus time. Calculate relative changes in tumor volume (% T/C) using the tumor volume measurements taken nearest to the last day of dosing with Compound A, whereas the baseline tumor volume is the volume recorded on or just prior to first day of dosing. Calculate % T/C values using the formula % T/C=100×ΔT/ΔC, whereby T=mean tumor volume of the compound treated group, ΔT=mean tumor volume of the compound treated group minus the mean tumor volume on the baseline day, C=mean tumor volume of the control (vehicle) group, and ΔC=mean tumor volume of the control group minus the mean tumor volume on the baseline day. Tumor growth inhibition is observed in those instances where the calculated values for % T/C are less than 100% whereby greater inhibition results in smaller % T/C values. If ΔT was <0, then a tumor regression value was calculated instead of % T/C whereby % Regression=100×ΔT/Tinitial such that Tinitial=the grand mean of the tumor volume for all the treatment groups. Any negative values for % T/C listed are values for % Regression.
as §2
Formulations for Compound A and DC101: Formulate Compound A on a weekly basis in 1% hydroxyethyl cellulose (HEC) in 25 mM phosphate buffer (PB) at a pH of 2 and store at 4° C. Solubilize DC101 in phosphate buffered saline and store at 4° C.
Control Group: administer to the animals in the control group, both vehicles used for Compound A and DC101 according to the same schedules for each compound, respectively.
For the monotherapy groups, treat the animals with the desired compound as directed and with the vehicle for the compound not being dosed by following the schedule for the non-dosed compound.
Treat female Hsd athymic nude mice (n=7) bearing NCI-H441 xenograft tumors with Compound A by oral gavage (PO) once daily for 28 days at a dose of 50 or 75 mg/kg using 0.2 mL/dose. Administer Compound A starting after the mean tumor volumes reach approximately 150-200 mm^3 in size (day 36 after tumor implantation) and end treatment 28 days later (on day 63). […]

[4] = Body weight (tolerability), NCI-H441 xenograft Study 2; assay type: in vivo, female Hsd athymic nude mice
Method: as §2
as §3, with “mice (n=7)” for “mice (n=8)”, “gavage (PO)” for “gavage”, “or 75” for “or 100”, “(day 36” for “(day 15”, “day 63).” for “day 42).”
as §4, with “mice (n=7)” for “mice (n=8)”, “at a dose” for “at doses of 10,”, “20” for “20 or 40”, “(day 36” for “(day 15”, “tumor implantation).” for “tumor implantation) and end on day 39.”
Treat female Hsd athymic nude mice (n=7) bearing NCI-H441 xenograft tumors with Compound A by oral gavage once daily for 28 days at a dose of 50 mg/kg or 75 mg/kg using 0.2 mL/dose and intraperitoneal inject DC101 twice weekly at a dose of 20 mg/kg. […]

[5] = test system: NCI-H2122 xenograft tumors; experiment: Antitumor efficacy in NCI-H2122 xenograft model; assay type: in vivo, female Hsd athymic nude mice; settings: Day 45
Excerpt: as §1
Capture tumor size and body weight using Web Director. Estimate tumor volume (V) by using the formula: V=0.536L×W^2 where L=larger of measured diameter and W=smaller of perpendicular diameter. Transform the tumor volume data to a log scale to equalize variance across time and treatment groups. […] Calculate relative changes in tumor volume (% T/C) using the tumor volume measurements taken nearest to the last day of dosing with Compound A, whereas the baseline tumor volume is the volume recorded on or just prior to first day of dosing. […] Tumor growth inhibition is observed in those instances where the calculated values for % T/C are less than 100% whereby greater inhibition results in smaller % T/C values. […]

[6] = Body weight (tolerability), NCI-H2122 xenograft study; assay type: in vivo, female Hsd athymic nude mice; settings: Compound A 50 or 75 mg/kg monotherapy
Method: as §2
as §3, with “bearing NCI-H2122” for “bearing NCI-H441”, “gavage (PO)” for “gavage”, “or 75” for “or 100”, “(day 16” for “(day 15”, “treatment on” for “treatment 28 days later (on”, “day 43.” for “day 42).”
Treat female Hsd athymic nude mice (n=8) bearing NCI-H2122 xenograft tumors with DC101 by intraperitoneal injection at a dose 20 mg/kg. Administer DC101 starting after the mean tumor volumes reach approximately 150-200 mm^3 in size (day 16 after tumor implantation) and continue twice weekly for four weeks. Measure tumor volume and body weight twice a week for the duration of the treatment period.
Treat female Hsd athymic nude mice (n=8) bearing NCI-H2122 xenograft tumors with Compound A by oral gavage (PO) once daily for 28 days at a dose of 50 or 75 mg/kg using 0.2 mL/dose and intraperitoneal inject DC101 twice weekly at a dose of 20 mg/kg. […]

[7] = abemaciclib 150 mg every 12 hours + ramucirumab 10 mg/kg IV Day 1 of 21-day cycle, individual patients 1-3
[8] = abemaciclib 200 mg every 12 hours + ramucirumab 10 mg/kg IV Day 1 of 21-day cycle, individual patients 4-8
[9] = Compound A 50 mg/kg monotherapy, end of treatment period
[10] = Compound A 50 mg/kg monotherapy
[11] = Compound A 75 mg/kg monotherapy

Compound: CCN1CCN(Cc2ccc(Nc3ncc(F)c(-c4cc(F)c5nc(C)n(C(C)C)c5c4)n3)nc2)CC1 [abemaciclib, [5-(4-Ethyl-piperazin-1-ylmethyl)-pyridin-2-yl]-[5-fluoro-4-(7-fluoro-3-isopropyl-2-methyl-3H-benzoimidazol-5-yl)-pyrimidin-2-yl]-amine]
- Overall Response (Stage IV NSCLC; [7]): SD and PR and PD
- Target Response (Stage IV NSCLC; [7]): SD and PR
- Overall Response (Stage IV NSCLC; [8]): SD (3×) and PD and PR
- Target Response (Stage IV NSCLC; [8]): SD (2×) and PD and PR

Compound: CCN1CCN(Cc2ccc(Nc3ncc(F)c(-c4cc(F)c5nc(C)n(C(C)C)c5c4)n3)nc2)CC1.CS(=O)(=O)O [Compound A, [5-(4-Ethyl-piperazin-1-ylmethyl)-pyridin-2-yl]-[5-fluoro-4-(7-fluoro-3-isopropyl-2-methyl-3H-benzoimidazol-5-yl)-pyrimidin-2-yl]-amine methanesulfonate]
- partial response (animals) [1, 9]: 6/8
- stable disease (animals) [1, 9]: 2/8
- partial response (animals) ([1]; Compound A 100 mg/kg monotherapy, end of treatment period): 8/8
- mean percent regression ([1]; Compound A 100 mg/kg oral gavage once daily 28 days, study day 42): −22.8%
- maximum relative body weight loss ([2]; Compound A 50 mg/kg): 2.7%
- maximum relative body weight loss ([2]; Compound A 100 mg/kg): 4.7%
- % T/C ([3]; Compound A 50 mg/kg PO once daily 28 days, Day 67): 7.0%
- combined frequency for stable disease and partial response (disease control rate) [3, 10]: 4/7
- mice achieving complete regression [3, 10]: 2/7
- regression ([3]; Compound A 75 mg/kg PO once daily 28 days, Day 67): −4.8%
- combined frequency for stable disease and partial response (disease control rate) [3, 11]: 6/7
- mice achieving complete regression [3, 11]: 3/7
- maximum relative body weight loss [4, 10]: 5.5%
- maximum relative body weight loss [4, 11]: 5.1%
- % T/C ([5]; Compound A 50 mg/kg PO once daily 28 days): 64.3%
- % T/C ([5]; Compound A 75 mg/kg PO once daily 28 days): 37.3%
- changes in relative body weight [6]: not statistically different from the control group
